Common to all, as to format: cell-based, Human
Common to all, as to conditions: LPS 0.1 ng/mL

The test system of one test is IFNγ. The test is described as follows: Cytokine expression in PBMC supernatants (Luminex multiplex): IFNγ. How it is done: (§1) An exemplary natural-based composition is evaluated in an in vitro Peripheral Blood […] Cells cellular inflammation model.
(§2) Test Item Preparation: 120 mg of the exemplary composition (Project Shield) was dissolved in 6000 μL of CGM on the day of use to create a 2% (w/v) Dilution Stock Solution. A 2 ng/mL Working Stock of Lipopolysaccharides (“LPS”) was prepared fresh with IM and stored at 2-8° C. 10 μL LPS (2 ng/mL) was added to the appropriate wells for a final concentration of 0.1 ng/mL.
(§3) Complete Growth Media (CGM): To formulate CGM, RPMI was supplemented with 10% FBS and 100 U/mL penicillin+100 μg/mL streptomycin. CGM was prepared aseptically and stored at 2-8° C. for the duration of the study. CGM was warmed to 37° C. prior to use.
(§4) Cell Culture Set-up: Cells were thawed according to manufacturer's instructions, washed in CGM and assessed for viability using trypan blue staining. A stock cell solution of 2×10^6 cells/mL suspended in CGM was prepared. 100 μL of the stock solution was added to appropriate wells of a 96-well plate to seed 2×10^5 cells per well. […]
(§5) As illustrated in FIGS. 1-8, inflammatory cytokine expression for cell supernatants at 48 hours post stimulation/treatment. Expression was assessed by multiplex using the Luminex platform for the following cytokines: IFNγ, IL-1β, IL-6, IL-8, IL-10, IL-12p40, IL-12p70, TNF-α. […]

For the next test, the system named is IL-1β. The test is described as follows: Cytokine expression in PBMC supernatants (Luminex multiplex): IL-1β. The procedure:
as §1, §2, §3, §4, §5

In the next test the test system is IL-6. Put plainly: Cytokine expression in PBMC supernatants (Luminex multiplex): IL-6. How it is done: as §1, §2, §3, §4, §5
The subject of a further test is IL-8. Put plainly: Cytokine expression in PBMC supernatants (Luminex multiplex): IL-8. The procedure: as §1, §2, §3, §4, §5
For the next test, the system named is IL-10. The test is described as follows: Cytokine expression in PBMC supernatants (Luminex multiplex): IL-10. How it is done:
as §1, §2, §3, §4, §5

The test system of a further test is IL-12p40. Put plainly: Cytokine expression in PBMC supernatants (Luminex multiplex): IL-12p40. How it is done: as §1, §2, §3, §4, §5
A further test relates to IL-12p70. Put plainly: Cytokine expression in PBMC supernatants (Luminex multiplex): IL-12p70. The procedure: as §1, §2, §3, §4, §5
The subject of the next test is TNF-α. Put plainly: Cytokine expression in PBMC supernatants (Luminex multiplex): TNF-α. How it is done:
as §1, §2, §3, §4, §5

For the substance Lipopolysaccharides [LPS], the “IFNγ, LPS control Group vs Media Control” value in the test on IFNγ (donor 1, 48 h) was “significantly increased”; in the test with IFNγ (donor 2, 48 h), “significantly increased”. The “IL-1β, LPS control Group vs Media Control” value in the test with IL-1β (donor 1, 48 h) is listed as “not significantly increased”; in the test with IL-1β (donor 2, 48 h) it was “not significantly increased”. The “IL-6, LPS control Group vs Media Control” value in the test on IL-6 (donor 1, 48 h) is on record as “significantly increased”; in the test on IL-6 (donor 2, 48 h), “significantly increased”. Besides, the “IL-8, LPS control Group vs Media Control” value was “not donor 1” with IL-8 (donor 1, 48 h) and “significantly increased” with IL-8 (donor 2, 48 h). Moreover, the “IL-10, LPS control Group vs Media Control” value in the test with IL-10 (donor 1, 48 h) was “significantly increased”; in the test with IL-10 (donor 2, 48 h) it was “not donor 2”. Also, the “IL-12p40, LPS control Group vs Media Control” value with IL-12p40 (donor 1, 48 h) was “significantly increased”; in the test on IL-12p40 (donor 2, 48 h), “significantly increased”. The “IL-12p70, LPS control Group vs Media Control” value with IL-12p70 (donor 1, 48 h) was “significantly increased”; with IL-12p70 (donor 2, 48 h) it was “significantly increased”. The “TNF-α, LPS control Group vs Media Control” value in the test with TNF-α (donor 1, 48 h) was “not donor 1”; in the test on TNF-α (donor 2, 48 h), “significantly increased”.

Values taken from patent US12186358B2, “Compositions and methods for supporting immune health” (Plexus Worldwide, LLC, priority 2021, dated 2025).
